According to patent publication US20060127980A1, “Human excitatory amino acid transporter-2 gene promoter and uses thereof” (priority 2003, published 2006):

Assays:
Type in all cases: cell-based, human
[1] = system: hEAAT2 protein; test: Western blot of EAAT2 protein in PHFA
Experimental: FIG. 5A-E. Effect of pharmacological inhibitors on hEAAT2 promoter activity, and mRNA and protein expression in PHFA following various treatment protocols. A. hEAAT2 promoter activity in PHFA, either untreated (−) or treated with EGF (30 ng/ml), in the absence (−) or presence (+) of KT5720 (5 μM), AG1478 (1 μM), PDTC (100 μM), wortmannin (WRT) (100 nM) or PD98049 (PD) (50 μM). B. hEAAT2 promoter activity in PHFA, either untreated (−) or treated with bromo-cAMP (250 μM) in the absence (−) or presence (+) of KT5720 (5 μM), AG1478 (1 μM), PDTC (100 μM), wortmannin (WRT) (100 nM) or PD98049 (PD) (50 μM). C. hEAAT2 promoter activity in PHFA, either untreated (−) or treated with TNF-α (200 U/ml), in the absence (−) or presence (+) of KT5720 (5 μM), AG1478 (1 μM), PDTC (100 μM), wortmannin (WRT) (100 nM) or PD98049 (PD) (50 μM). D. The effect of the various treatment protocols on hEAAT2 and GAPDH mRNA levels. Upper panel presents relative hEAAT2 RNA expression versus GAPDH expression relative to control untreated or treated samples based on scanning of autoradiograms. Lower panel, actual Northern blots. E. The effect of the various treatment protocols on EAAT2 and ACTIN protein levels. Upper panel presents relative EAAT2 protein expression versus ACTIN expression relative to control untreated or treated samples based on scanning of autoradiograms. Individual experiments were performed 3 times using triplicate samples and S.D. from the mean is presented.
(§1) Northern and Western Blotting Assays. Total cellular RNA was isolated by the guanidinium/phenol extraction method and Northern blotting was performed as described (Huang et al., 2001, Oncogene 20(48):7051-7063; Su et al., 2000, Oncogene 19(30):3411-3421; Su et al., 2001, Nucleic Acids Res 29(8):1661-1671). Western blotting assays were performed as described (Su et al., 1998, Proc Natl Acad Sci USA 95(24):14400-14405; Su et al., 2002, Oncogene 21(22):3592-602).

[2] = system: hEAAT2 mRNA; test: Northern blot of hEAAT2 mRNA in PHFA treated with modulators; details: 7-day treatment, EGF 30 ng/ml, TGF-α 30 ng/ml, dbcAMP 200 μM, bromo-cAMP 100 μM, TNF-α 200 U/ml
Experimental: (§2) FIG. 4A-D. Effect of modulators of hEAAT2 activity on hEAAT2 expression and hEAAT2 promoter activity in PHFA. A. A Northern analysis of hEAAT2 and GAPDH mRNA expression following treatment with EGF (30 ng/ml), TGF-α (30 ng/ml), dbcAMP (200 μM, bromo-cAMP (100 μM) or TNF-α (200 U/ml) for 7 days. B. Nuclear run-on assays determining the relative rates of hEAAT2 and GAPDH transcription as a function of 7-day treatment with the same concentrations of the indicated agents. C. A time course of mRNA expression of hEAAT2 and GAPDH following treatment with EGF, bromo-cAMP or TNF-α (same concentrations as in A.). D. Fold luciferase activity in PHFA transfected with flhEAAT2Prom-luc or various deletion mutants of hEAAT2 and non-transfected controls treated with the indicated compounds for four days.
as §1
Positive and Negative Regulation of hEAAT2 Transcription, Promoter Activity and mRNA Levels in PHFA. Several enhancers of GLT-1 expression in rat astrocytes have been identified, including epidermal growth factor (EGF), transforming growth factor-α (TGF-α) and dibutyryl cyclic AMP (dbcAMP) (Swanson et al., 1997, J Neurosci 17(3):932-940; Zelenaia et al., 2000, Mol Pharmacol 57(4):667-678). Based on these considerations, experiments were performed to determine if these agents similarly modify human hEAAT2 expression in PHFA. Consistent with previous observations in rat astrocytes, 7-day treatment with EGF, TGF-α, and two analogs of cAMP, dbcAMP and bromo-cAMP, stimulated hEAAT2 mRNA expression in PHFA, whereas TNF-α decreased expression (FIG. 4B). […] In contrast, TNF-α decreased expression by 48 h (FIG. 4C).

[3] = system: hEAAT2 promoter; test: flhEAAT2Prom-luc and deletion mutant luciferase reporter assay in PHFA treated with modulators; details: four day treatment
Experimental: as §2
Construction of hEAAT2 Promoter Deletion Mutants and Performance of the Luciferase Assays. 5′-deletion mutants of the hEAAT2 promoter were made with exonuclease III digestion using the Erase-A-Base System (Promega) as described for the PEG-3 promoter (Su et al., 2000, Oncogene 19(30):3411-3421). The flhEAAT2Prom-luc and flhEAAT2Prom-luc deletion mutants were cloned into the pGL3-basic luciferase reporter vector (Promega) and luciferase reporter assays were performed as described (Su et al., 2000, Oncogene 19(30):3411-3421; Su et al., 2001, Nucleic Acids Res 29(8):1661-1671), except that instead of using lipofectamine, which was toxic to PHFA, the calcium phosphate precipitation transfection technique was used (Babiss et al., 1986, Proc Natl Acad Sci USA 83(7):2167-2171).
Preferential Expression of the hEAAT2 Promoter in PHFA and Deletion Analysis of the hEAAT2 Promoter. hEAAT2 is expressed in brain-derived cells, mainly astrocytes (Tanaka et al., 1997, Science 276(5319):1699-1702; Anderson et al., 2000, Glia 32(1):1-14). Experiments were performed to confirm hEAAT2 promoter activity in normal human astrocytes and to determine expression levels in other cell types (FIG. 2A). Primary early passage and established human normal and tumor cell lines were co-transfected with a putative full-length ˜2.5 kb hEAAT2 promoter, a SacII fragment extending from bp −2426 to bp +44, was cloned into the pGL3-basic vector (Promega), where it drove expression of the firefly luciferase (luc) gene, and a pSV-β-galactosidase expression plasmid. Relative fold expression of a full length hEAAT2 promoter-luciferase (flhEAAT2Prom-luc) construct was determined as described (Su et al., 2000, Oncogene 19(30):3411-3421; Su et al., 2001, Nucleic Acids Res 29(8):1661-1671), and activity versus transfection with a pSV-β-galactosidase plasmid was calculated as described (Su et al., 2000, Oncogene 19(30):3411-3421; Su et al., 2001, Nucleic Acids Res 29(8):1661-1671) to equalize for differences in transfection efficiency.
To examine further the relationship between hEAAT2 and treatment with the various glutamate transporter modulators, transient transfection assays were performed in PHFA using the flhEAAT2Prom-luc constructs and various deletions thereof (FIG. 4D). […] In the case of dbcAMP, promoter activity was enhanced by ˜3-fold.

CCCC(=O)Nc1ncnc2c1ncn2[C@@H]1O[C@@H]2COP(=O)(O)O[C@H]2[C@H]1OC(=O)CCC [dbcAMP, dibutyryl cyclic AMP]
hEAAT2 protein levels [1]: upregulated
hEAAT2 mRNA expression [2]: stimulated
stimulation of promoter activity after deletion of bp −2426 to bp −703 ([3]; deletion mutant): did not significantly decrease
upregulation of promoter activity after deletion of bp −703 to bp −326 ([3]; deletion mutant): most relevant
upregulation of hEAAT2 promoter activity ([3]; flhEAAT2Prom-luc): ~3 fold
